Experiments:
[1] = system: TOPFlash (three wild-type Tcf binding sites) luciferase reporter; assay: Wnt-responsive TOPFlash luciferase reporter assay, SW480; format: cell-based; settings: Homo sapiens, 24 h treatment, read-out: TOPFlash IC50 ± SD SW480
Method: The TOPFlash luciferase reporter assay (in which the luciferase reporter has three wild-type Tcf4 binding sites) was performed with 4 and 5. Cell transfection and luciferase assay. FuGENE6 (E269A, Promega) 96 well plate format was used for the transfection of HEK293 and SW480 cells according to the manufacturer's instruction. HEK293 cells were co-transfected with 45 ng of TOPFlash or FOPFlash reporter gene, 135 ng pcDNA3.1-β-catenin, and 20 ng of pCMV-RL normalization reporter gene. SW480 cells were co-transfected with 60 ng of the TOPFlash or FOPFlash reporter gene and 40 ng of pCMV-RL normalization reporter. Cells were cultured in DMEM and 10% FBS at 37° C. for 24 h, and different concentrations of inhibitors or DMSO was added. After 24 h, the luciferase reporter activity was measured using the Dual-Glo system (E2940, Promega). Normalized luciferase activity in response to the treatment with 4 and 5 was compared with that obtained from the cells treated with DMSO. Experiments were performed in triplicate.

[2] = system: mRNA expression of AXIN2, LEF1, cyclin D1 (Wnt target genes); assay: Quantitative real-time PCR of Wnt target genes in SW480 cells; format: cell-based, human; settings: SW480, 24 h, FIG. 2
Source text: House-keeper gene HERT was used as a reference. Each set of data is expressed as mean±standard deviation (n=3).
Axin2, cyclin D1, c-myc, and LEF1 are the target genes of the canonical Wnt signaling pathway. Axin 2 is a specific target gene for the canonical Wnt signaling pathway (a. Yan D, et al., Elevated expression of axin2 and hnkd mRNA provides evidence that Wnt/beta-catenin signaling is activated in human colon tumors. Proc Natl Acad Sci USA. 2001 Dec. 18; 98(26):14973-8; b. Jho E H, et al., Wnt/beta-catenin/Tcf signaling induces the transcription of Axin2, a negative regulator of the signaling pathway. Mol Cell Biol. 2002 February; 22(4):1172-83; c. Leung J Y, et al., Activation of AXIN2 expression by beta-catenin-T cell factor. A feedback repressor pathway regulating Wnt signaling. J Biol Chem. 2002 Jun. 14; 277(24):21657-65; d. Lustig B, et al., Negative feedback loop of Wnt signaling through upregulation of conductin/axin2 in colorectal and liver tumors. Mol Cell Biol. 2002 February; 22(4):1184-93). Cyclin D1 (a. Tetsu O, et al., Nature. 1999 Apr. 1; 398(6726):422-6; b. Sansom O J, et al., Cyclin D1 is not an immediate target of beta-catenin following Apc loss in the intestine. J Biol Chem. 2005 Aug. 5; 280(31):28463-7; c. Shtutman M, et al., The cyclin D1 gene is a target of the beta-catenin/LEF-1 pathway. Proc Natl Acad Sci USA. 1999 May 11; 96(10):5522-7; d. Lin S Y, et al., Beta-catenin, a novel prognostic marker for breast cancer: its roles in cyclin D1 expression and cancer progression. Proc Natl Acad Sci USA. 2000 Apr. 11; 97(8):4262-6), c-myc (a. He T C, et al., Identification of c-MYC as a target of the APC pathway. Science. 1998 September 4; 281(5382):1509-12; b. Sansom O J, et al., Myc deletion rescues Ape deficiency in the small intestine. Nature. 2007 Apr. 5; 446(7136):676-9), and LEF1 (Hovanes K, et al., Beta-catenin-sensitive isoforms of lymphoid enhancer factor-1 are selectively expressed in colon cancer. Nat Genet. 2001 May; 28(1):53-7.; Filali M, et al., Wnt-3A/beta-catenin signaling induces transcription from the LEF-1 promoter. J Biol Chem. 2002 Sep. 6; 277(36):33398-410; Li T W, et al., Wnt activation and alternative promoter repression of LEF1 in colon cancer. Mol Cell Biol. 2006 July; 26(14):5284-99; Nguyen D X, et al., WNT/TCF signaling through LEF1 and HOXB9 mediates lung adenocarcinoma metastasis. Cell. 2009 Jul. […] Quantitative real-time PCR studies were also conducted to evaluate the inhibitory effects of 4 on the mRNA levels of Wnt target genes.
Quantitative real time PCR analysis. SW480 cells at 1×10^6/mL were treated with different concentrations of 4 for 24 h. […] Quantitative PCR (qPCR) was performed using the iQ™ SYBR green supernix kit (170-8880, BIO-RAD) on an iQ^5 multicolor real-time PCR reaction system (BIO-RAD). […]

With `Cl.Cl.O=C(Nc1ccc(O[C@@H]2CCNC2)c(-c2cccc(-c3nn[nH]n3)c2)c1)c1ccc(O[C@H]2CCNC2)c(-c2ccc(F)c(F)c2)c1` [Compound 4, 3′,4′-difluoro-6-(((S)-pyrrolidin-3-yl)oxy)-N-(6-(((R)-pyrrolidin-3-yl)oxy)-3′-(2H-tetrazol-5-yl)-[1,1′-biphenyl]-3-yl)-[1,1′-biphenyl]-3-carboxamide dihydrochloride] the IC50 [1] was 25 ± 2.7 µM, the “mRNA of house-keeper gene HERT” value [2] was “did not inhibit” and the “transcription of Axin2” value [2] was “dose-dependently inhibit”. For the same molecule, the “transcription of LEF1” value [2] was “dose-dependently inhibit” and the “transcription of cyclin D1” value [2] was “dose-dependently inhibit”.

Reference: patent US20220411414A1, “INHIBITORS FOR THE B-CATENIN/B-CELL LYMPHOMA 9 (BCL9) PROTEIN-PROTEIN INTERACTION” (H. LEE MOFFITT CANCER CENTER AND RESEARCH INSTITUTE, INC., priority 2018, published 2022)
